For test [1], the system named is MDA-MB468. In words: SRB antiproliferative assay, MDA-MB468. Type of test: cell-based, human. The settings on record: Homo sapiens. Put shortly: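 Cells (5,000-10,000 per well) exposed to seven drug concentrations for 48 h, then TCA-fixed and stained with 0.4% SRB. Growth computed as (Ti−Tz)/(C−Tz)×100 against time-zero and untreated controls. GI50 taken from variable-slope sigmoidal fit.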
In general terms: In SRB staining, fixed cells bind dye roughly in proportion to their protein.

The test system of test [2] is U87MG. Nature of the test: SRB antiproliferative assay, U87MG. Type of test: cell-based. The settings on record: Homo sapiens, U-87 MG. The method, then:
Antiproliferative effects were determined by a sulforhodamine B (SRB) based protocol. For a typical screening experiment, 5,000-10,000 cells were inoculated into 100 μl medium per well of a 96-well microtiter plate as described previously. Briefly, after the inoculation, the microtiter plate was incubated at 37° C., 5% CO2, 95% air and 100% relative humidity for 24 h, prior to addition of experimental drugs. Some of the sample wells were fixed with 25 μl of 50% trichloroacetic acid (TCA) as a control of the cell population for each cell line at the time of drug addition (Tz). An aliquot of the frozen stock was thawed and diluted to the desired final maximum test-concentration with complete medium. […] The cells “stained” with SRB were solubilized with 10 mM trizma base, and the absorbance was read on an automated plate reader at a wavelength of 515-564 nm. The relative growth rate (%) was calculated for each of the compound concentrations according to the following formula: (Ti−Tz)/(C−Tz)×100 In the formula, time zero (Tz), control growth (C), and OD for different concentration of tested compounds (Ti). […] Values were calculated for each of these parameters if the level of activity was reached. However, if the effect was not reached or was exceeded, the value for that parameter was expressed as greater or less than the maximum or minimum concentration tested. […]

For orientation: IC50 means the midpoint of a concentration-inhibition curve. The GI50 is the concentration giving 50% growth inhibition. Read a low GI50 as more potent growth inhibition.

Molecules are shown by their SMILES.

In the case of `O=[N+]([O-])c1ccc(S(=O)(=O)N2CCN(c3ccnc4cc(Cl)ccc34)CC2)c([N+](=O)[O-])c1` [Compound 1, 7-Chloro-4-(4-(2,4-dinitrophenylsulfonyl)piperazin-1-yl)quinoline], the values for the IC50 in test [1] (MDA-MB-468) and in test [2] were 700 ± 100 nM and 800 ± 100 nM, respectively. Further, the GI50 in test [1] (MDA-MB-468, 48 h) is 700 ± 100 nM.
